Results: a melting point compilation (Tetko et al.; mined from patent text by program, amines drawn as free bases though some values may be those of a salt)

melting point [°C]	Compound
192	O=C(Nc1ccc2ccc(Cl)nc2n1)C1CCC1
146 to 148	CCCCCCCCCCCCC(C)(C)NC(=O)Nc1ccccc1C(=O)NC1CCN(C(c2ccccc2)c2ccccc2)CC1
103 to 107	COC(C(C)C)C(C)(C)C(=O)Nc1ccc(Cl)cc1 (stereo unspecified)
180 to 182	CS(=O)CCC1=NS(=O)(=O)NC(N)=N1 (stereo unspecified)
140 to 141	Cc1nc2ccccc2c(NCC(O)CO)c1Br (stereo unspecified)
166 to 169	O=C(NC(=O)c1ccccc1)NC1CCCc2ccccc21 (stereo unspecified)
210 to 212	Cc1ccnc2c1nc(-c1cccnc1N)n2-c1ccc(CN)cc1
163 to 165	CCOC(=O)c1c2ccc(CC(=O)NOCCN3CCCCC3)ccc-2c(C(=O)OCC)c1N
82.3 to 91.5	CS(=O)(=O)c1ncc2cc(Oc3ccccc3F)c(=O)n(-c3ccc(F)cc3)c2n1
113 to 115	CCOc1c(OC)cccc1C(=O)Nc1ccc(C(=O)OC)cc1C(=O)OC
81.5 to 83	O=C(O)CCCCCCCC(=O)CC(O)C(=O)C=Cc1ccccc1 (stereo unspecified)
82 to 83	CC(=O)NC(CC(=O)c1ccccc1)OC(C)=O (stereo unspecified)
159 to 161	Cc1ccc(Oc2ccc(-n3cc(C(=O)O)nn3)cc2)c(O)c1
100	O=C(O)CCOc1ccccc1CNC(=O)C1Cc2ccccc2N1S(=O)(=O)c1ccc(-c2cccc(C(F)(F)F)c2)cc1 (stereo unspecified)
191 to 194	CS(=O)(=O)CCCn1cc(C(Cc2ccccc2Br)=NO)c2ccc(Cl)c(Cl)c21
241 to 247	CC12CC(O)CC1C1CCc3cc(O)ccc3C1C(c1ccccc1)C2 (stereo unspecified)
133 to 134	N#CCCNC(=O)c1cccc(-c2cccc3nn(Cc4ccc(F)cc4)cc23)c1
55 to 58	CCCCC1=NC2(CCCC2)C(=O)N1Cc1ccc(-c2ccccc2S(=O)(=O)Nc2onc(C)c2C)c(OCCOC)c1
128 to 129	OC(Cn1cncn1)(c1ccccc1)c1ccccc1
211	CC(C)NC(=NC(=O)OCc1ccccc1)N=C1NC(=O)C(=O)N1c1ccc(Cl)c(Cl)c1
235 to 237	C#Cc1ccc(-c2ccc(-c3ccc(C#C)cc3)n2-c2ccc(C)cc2)cc1
79 to 80	Cc1nc2c(cc1CO)CCCCC2
160 to 164	Cc1cc(C)c(/C=C2\C(=O)N(CN3CCN(C)CC3)c3ccccc32)[nH]1

melting point [°C]	Compound
124 to 125	COC(=O)CC1(C)Oc2ccc([N+](=O)[O-])cc2-n2c(Cl)ccc21 (stereo unspecified)
136 to 140	COc1cc(C=C(C(=O)NC2CCC(C)CC2)c2ccccc2)ccc1OC(C)=O (stereo unspecified)
155 to 156	Cc1ccc2c(=O)cc(C#N)oc2c1
181 to 182	Cc1oc(-c2ccc(C(C)C)cc2)nc1CCOc1ccc(C[C@H](OCC(F)(F)F)C(=O)O)c2sccc12
112 to 115	CCOc1cccc2c(=O)c3ccccc3sc12
186	CC(C)(C)NCC(O)COc1ccc(-c2nc(C(F)(F)F)c[nH]2)cc1 (stereo unspecified)
93 to 95	CCc1sc2c(c1C(=O)CCCN1CCC(c3noc4cc(F)ccc34)CC1)CCN(C(C)=O)C2
132 to 134	C=CCOc1ccc(COc2ccc(CC(=O)O)cc2Cl)cc1Cl
95 to 98	O=C(NCCCCO)c1ccc2c(c1)OCO2
163 to 166	C#Cc1cccc(Nc2ncnc3cnc(NC(=O)/C=C/CN(C)C)cc23)c1
118 to 120	O=c1ccc2ccc(OCC(O)CO)cc2o1 (stereo unspecified)
189 to 190	CN(C)CC1CCCCN1CC(=O)N1c2ccccc2C(=O)Nc2cccnc21 (stereo unspecified)
123 to 126	Cc1cc(Cl)n(-c2ccc(Cl)nn2)n1
127	CCOC(=O)C1(c2cccs2)CC(CC)=NNC1C (stereo unspecified)
147 to 148	CCc1c(C)c(NC(=O)NCCO)c(C)c2c1OCC2c1ccc(C(C)C)cc1 (stereo unspecified)
234 to 236	CCN(CC)c1ccc(-n2c(CC(=O)O)c(C(=O)O)c3cc(Oc4ccc(C(F)(F)F)cc4)ccc32)cc1
266 to 268	O=C(CN1CCC(Cc2ccc(F)cc2)CC1)Nc1ccc2[nH]c(=S)[nH]c2c1
168	COc1ccc(N2CCNC2=O)cc1OC
183 to 185	Cc1nc(-c2ccc(-c3cccs3)cc2)c(-c2ccc(S(C)(=O)=O)cc2)o1
157 to 158	O=c1[nH]nc(-c2ccccc2[N+](=O)[O-])o1
74 to 75	O=C(c1cnoc1C1CC1)c1ncc(Cl)cc1Cl
89 to 93	COc1c(C)cc(C(=O)N2CCN(c3ncccc3NC(C)C)CC2)cc1C
102 to 105	CCCCc1nn(-c2cc(NC(=O)CC)ccc2C(F)(F)F)c(=O)n1Cc1ccc(-c2ccccc2S(=O)(=O)NC(=O)c2ccccc2Cl)cc1

melting point [°C]	Compound
44 to 45	COC(=O)Cc1ccc(OCCNC(=O)OCc2ccccc2)c(F)c1
150 to 152	CC(C)(C)SN1C(=O)NC(=O)C1=O
126 to 127	Cc1nnc(-c2ccc3occ(-c4cccc(C(F)(F)F)c4)c3c2)o1
228 to 230	Cc1ccc(-n2c(=O)n(O)c(=O)c3cc(F)c(N4CCCC4)nc32)cc1
271	CCOC(=O)c1c[nH]c2ccc(C(=O)c3c(C)c(OC)c4ccccn34)cc2c1=O
125 to 126	CC(=O)NC(=O)C(Cl)Cc1ccc(OCC(C)(C)c2ccccc2)cc1 (stereo unspecified)
59 to 61	CC(C)(C)NC(=O)c1ncccc1CCc1ccc(F)cc1
> 300	Cc1nc(O)sc1-c1cn2cccnc2n1
170	CCN(CC)C(=O)c1cc2c(cn1)[nH]c1ccccc12
101	CC(C)(C)OCCOc1cc(NC(=O)OC(C)(C)C)c(NC(=O)CC(=O)c2cccc(-n3ccnc3)c2)cc1-c1ccc(F)cc1
146 to 147	O=C(O)C1CCCN2CC(CS)C(=O)N12 (stereo unspecified)
169 to 170	C#CCOc1ccc(C)cc1S(N)(=O)=O
129 to 132	CC(=O)Oc1ccc2sc(S(N)(=O)=O)cc2c1
199 to 200	Nc1cc(C(=O)O)cc(OCc2ccc(Cl)cc2)c1Cc1ccccc1
100	CCCCC[C@H]1CC[C@H](c2cnc(-c3ccc(C#N)cc3)nc2)CC1
273 to 277	O=C(NN=Cc1c(O)cccc1Cl)c1ccc(Cl)cc1
109 to 111	CCC1c2cc(F)ccc2-c2ccccc2N1C(=O)c1ccc(O)cc1F (stereo unspecified)
174 to 175	O=C1CC[C@@H]([N+](=O)[O-])[C@H](c2ccccc2)N1 (relative stereo)
171 to 173	C=CC(C)(C)C(O)(COc1ccc(-c2ccccc2)cc1)Cn1cnnc1 (stereo unspecified)
128 to 130	CCOC(=O)COc1ccc(C(=O)Nc2ccccc2S(=O)c2ccccc2C#N)cc1 (stereo unspecified)
200	COc1ccc(Cl)cc1N1C(=O)NC(=O)C1c1ccccc1 (stereo unspecified)
140 to 142	COC(=O)Nc1ccc(NC(=O)CN(C)C)c(N)c1
229 to 234	COc1ccc2nc(NC(=O)C(CC3CCCC3)c3ccc(S(=O)(=O)N(C)C)cc3)sc2n1 (stereo unspecified)

Compound	melting point [°C]
CCC(=O)N1N=C(c2ccc([N+](=O)[O-])c(C)c2)c2cc3c(cc2CC1C)OCO3 (stereo unspecified)	172 to 175
CC1(C)CCC(C)(C)c2c(O)cc(C=O)cc21	144
